Measured values as given in ChEMBL document CHEMBL4507304, “Data for DCP probe TP-021” (2021).

Experiments:
[1] = target: Muscarinic acetylcholine receptor M4 (Homo sapiens) (UniProt P08173); conditions: Compound concentration 10.0 uM
[2] = target: Insulin receptor (Homo sapiens) (UniProt P06213); conditions: Compound concentration 1000.0 nM
[3] = target: RAC-alpha serine/threonine-protein kinase (Homo sapiens) (UniProt P31749); conditions: Compound concentration 1000.0 nM
[4] = target: 1-phosphatidylinositol 3-phosphate 5-kinase (Homo sapiens) (UniProt Q9Y2I7); conditions: Compound concentration 1000.0 nM
[5] = target: Megakaryocyte-associated tyrosine-protein kinase (Homo sapiens) (UniProt P42679); conditions: Compound concentration 1000.0 nM
[6] = target: Tyrosine-protein kinase ZAP-70 (Homo sapiens) (UniProt P43403); conditions: Compound concentration 1000.0 nM
[7] = target: Alpha-1D adrenergic receptor (Homo sapiens) (UniProt P25100); conditions: Compound concentration 10.0 uM
[8] = target: Muscarinic acetylcholine receptor M1 (Homo sapiens) (UniProt P11229); conditions: Compound concentration 10.0 uM
[9] = target: Serine/threonine-protein kinase 35 (Homo sapiens) (UniProt Q8TDR2); conditions: Compound concentration 1000.0 nM
[10] = target: Casein kinase I isoform gamma-1 (Homo sapiens) (UniProt Q9HCP0); conditions: Compound concentration 1000.0 nM
[11] = target: Phosphatidylinositol 4-kinase beta (Homo sapiens) (UniProt Q9UBF8); conditions: Compound concentration 1000.0 nM
[12] = target: Alpha-2B adrenergic receptor (Homo sapiens) (UniProt P18089); conditions: Compound concentration 10.0 uM
[13] = target: Serine/threonine-protein kinase TNNI3K (Homo sapiens) (UniProt Q59H18); conditions: Compound concentration 1000.0 nM
[14] = target: Cyclin-dependent kinase 2 (Homo sapiens) (UniProt P24941); conditions: Compound concentration 1000.0 nM
[15] = target: Tyrosine-protein kinase JAK2 (Homo sapiens) (UniProt O60674); conditions: Compound concentration 1000.0 nM
[16] = target: Serine/threonine-protein kinase RIO3 (Homo sapiens) (UniProt O14730); conditions: Compound concentration 1000.0 nM
[17] = target: Tyrosine-protein kinase Tec (Homo sapiens) (UniProt P42680); conditions: Compound concentration 1000.0 nM
[18] = target: Serine/threonine-protein kinase SIK1 (Homo sapiens) (UniProt P57059); conditions: Compound concentration 1000.0 nM
[19] = target: Ribosomal protein S6 kinase alpha-3 (Homo sapiens) (UniProt P51812); conditions: Compound concentration 1000.0 nM
[20] = target: Tyrosine-protein kinase JAK1 (Homo sapiens) (UniProt P23458); conditions: Compound concentration 1000.0 nM
[21] = target: Mitogen-activated protein kinase kinase kinase 9 (Homo sapiens) (UniProt P80192); conditions: Compound concentration 1000.0 nM
[22] = target: Membrane-associated tyrosine- and threonine-specific cdc2-inhibitory kinase (Homo sapiens) (UniProt Q99640); conditions: Compound concentration 1000.0 nM
[23] = target: Casein kinase I isoform alpha (Homo sapiens) (UniProt P48729); conditions: Compound concentration 1000.0 nM
[24] = tested on: Epidermal growth factor receptor (Homo sapiens), P00533 [UNDEFINED MUTATION]; conditions: Compound concentration 1000.0 nM
[25] = target: Ephrin type-A receptor 3 (Homo sapiens) (UniProt P29320); conditions: Compound concentration 1000.0 nM
[26] = target: Serine/threonine-protein kinase MRCK gamma (Homo sapiens) (UniProt Q6DT37); conditions: Compound concentration 1000.0 nM
[27] = target: Cyclin-dependent kinase 2 homolog (Plasmodium falciparum (isolate 3D7)) (UniProt P61075); conditions: Compound concentration 1000.0 nM
[28] = target: BMP-2-inducible protein kinase (Homo sapiens) (UniProt Q9NSY1); conditions: Compound concentration 1000.0 nM
[29] = target: G protein-coupled receptor kinase 3 (Homo sapiens) (UniProt P35626); conditions: Compound concentration 1000.0 nM
[30] = target: Dual specificity tyrosine-phosphorylation-regulated kinase 1B (Homo sapiens) (UniProt Q9Y463); conditions: Compound concentration 1000.0 nM
[31] = target: Mitogen-activated protein kinase kinase kinase kinase 4 (Homo sapiens) (UniProt O95819); conditions: Compound concentration 1000.0 nM
[32] = target: Misshapen-like kinase 1 (Homo sapiens) (UniProt Q8N4C8); conditions: Compound concentration 1000.0 nM
[33] = target: Cyclin-dependent kinase 7 (Homo sapiens) (UniProt P50613); conditions: Compound concentration 1000.0 nM
[34] = target: Angiopoietin-1 receptor (Homo sapiens) (UniProt Q02763); conditions: Compound concentration 1000.0 nM
[35] = target: Serine/threonine-protein kinase WNK1 (Homo sapiens) (UniProt Q9H4A3); conditions: Compound concentration 1000.0 nM
[36] = target: Histamine H3 receptor (Homo sapiens) (UniProt Q9Y5N1); conditions: Compound concentration 10.0 uM
[37] = target: Tyrosine-protein kinase Fer (Homo sapiens) (UniProt P16591); conditions: Compound concentration 1000.0 nM
[38] = target: Serine/threonine-protein kinase PLK1 (Homo sapiens) (UniProt P53350); conditions: Compound concentration 1000.0 nM
[39] = target: Serine/threonine-protein kinase PAK 4 (Homo sapiens) (UniProt O96013); conditions: Compound concentration 1000.0 nM
[40] = target: Casein kinase I isoform gamma-3 (Homo sapiens) (UniProt Q9Y6M4); conditions: Compound concentration 1000.0 nM
[41] = target: Mitogen-activated protein kinase kinase kinase 12 (Homo sapiens) (UniProt Q12852); conditions: Compound concentration 1000.0 nM
[42] = target: Tyrosine-protein kinase receptor TYRO3 (Homo sapiens) (UniProt Q06418); conditions: Compound concentration 1000.0 nM
[43] = target: Protein kinase C epsilon type (Homo sapiens) (UniProt Q02156); conditions: Compound concentration 1000.0 nM
[44] = target: Tyrosine-protein kinase ITK/TSK (Homo sapiens) (UniProt Q08881); conditions: Compound concentration 1000.0 nM
[45] = target: Cyclin-G-associated kinase (Homo sapiens) (UniProt O14976); conditions: Compound concentration 1000.0 nM
[46] = target: Serine/threonine-protein kinase tousled-like 2 (Homo sapiens) (UniProt Q86UE8); conditions: Compound concentration 1000.0 nM

Sequence of Histamine H3 receptor (Homo sapiens) (Q9Y5N1 whole entry): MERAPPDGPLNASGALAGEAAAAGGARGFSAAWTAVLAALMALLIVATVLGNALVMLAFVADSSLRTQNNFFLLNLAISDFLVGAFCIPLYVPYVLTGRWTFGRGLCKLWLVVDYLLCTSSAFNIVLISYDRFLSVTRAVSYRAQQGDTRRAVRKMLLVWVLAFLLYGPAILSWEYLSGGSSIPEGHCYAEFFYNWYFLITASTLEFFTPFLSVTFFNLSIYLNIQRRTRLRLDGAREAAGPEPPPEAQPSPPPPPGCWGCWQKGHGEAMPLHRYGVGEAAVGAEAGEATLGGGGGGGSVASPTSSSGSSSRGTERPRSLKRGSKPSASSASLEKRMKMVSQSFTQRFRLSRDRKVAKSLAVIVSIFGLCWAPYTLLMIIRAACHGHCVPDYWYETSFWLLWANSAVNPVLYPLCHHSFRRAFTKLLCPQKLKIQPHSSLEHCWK
Sequence of Tyrosine-protein kinase JAK2 (Homo sapiens) (O60674 whole entry): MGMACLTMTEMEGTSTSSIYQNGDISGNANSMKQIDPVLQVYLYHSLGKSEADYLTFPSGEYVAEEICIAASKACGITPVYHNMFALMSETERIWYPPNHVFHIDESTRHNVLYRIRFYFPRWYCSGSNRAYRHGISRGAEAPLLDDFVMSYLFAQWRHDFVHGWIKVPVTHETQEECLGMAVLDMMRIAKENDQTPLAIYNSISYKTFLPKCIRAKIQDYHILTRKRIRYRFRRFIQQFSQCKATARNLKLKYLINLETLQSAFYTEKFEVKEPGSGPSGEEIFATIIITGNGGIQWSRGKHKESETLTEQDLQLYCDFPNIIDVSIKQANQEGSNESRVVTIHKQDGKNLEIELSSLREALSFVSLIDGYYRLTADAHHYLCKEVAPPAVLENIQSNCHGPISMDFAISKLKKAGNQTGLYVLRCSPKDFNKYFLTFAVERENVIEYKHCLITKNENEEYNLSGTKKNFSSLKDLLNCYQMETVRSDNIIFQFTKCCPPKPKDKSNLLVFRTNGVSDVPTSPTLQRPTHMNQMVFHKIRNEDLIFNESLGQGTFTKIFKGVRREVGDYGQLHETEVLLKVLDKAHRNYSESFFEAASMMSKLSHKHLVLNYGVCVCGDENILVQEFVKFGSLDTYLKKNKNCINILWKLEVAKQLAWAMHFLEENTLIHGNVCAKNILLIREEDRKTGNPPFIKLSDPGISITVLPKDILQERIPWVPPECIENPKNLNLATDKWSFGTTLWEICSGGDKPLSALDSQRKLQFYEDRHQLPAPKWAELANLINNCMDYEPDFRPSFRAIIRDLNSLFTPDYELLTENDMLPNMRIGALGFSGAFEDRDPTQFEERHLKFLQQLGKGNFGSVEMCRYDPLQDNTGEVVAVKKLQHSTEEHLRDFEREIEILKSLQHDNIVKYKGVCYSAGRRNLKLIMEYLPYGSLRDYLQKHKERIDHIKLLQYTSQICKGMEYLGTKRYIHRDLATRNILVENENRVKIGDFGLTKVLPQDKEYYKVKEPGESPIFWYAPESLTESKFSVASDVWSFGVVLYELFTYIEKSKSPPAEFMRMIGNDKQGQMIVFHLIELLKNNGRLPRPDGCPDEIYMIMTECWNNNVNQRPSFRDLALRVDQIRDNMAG
Sequence of Serine/threonine-protein kinase RIO3 (Homo sapiens) (O14730 whole entry): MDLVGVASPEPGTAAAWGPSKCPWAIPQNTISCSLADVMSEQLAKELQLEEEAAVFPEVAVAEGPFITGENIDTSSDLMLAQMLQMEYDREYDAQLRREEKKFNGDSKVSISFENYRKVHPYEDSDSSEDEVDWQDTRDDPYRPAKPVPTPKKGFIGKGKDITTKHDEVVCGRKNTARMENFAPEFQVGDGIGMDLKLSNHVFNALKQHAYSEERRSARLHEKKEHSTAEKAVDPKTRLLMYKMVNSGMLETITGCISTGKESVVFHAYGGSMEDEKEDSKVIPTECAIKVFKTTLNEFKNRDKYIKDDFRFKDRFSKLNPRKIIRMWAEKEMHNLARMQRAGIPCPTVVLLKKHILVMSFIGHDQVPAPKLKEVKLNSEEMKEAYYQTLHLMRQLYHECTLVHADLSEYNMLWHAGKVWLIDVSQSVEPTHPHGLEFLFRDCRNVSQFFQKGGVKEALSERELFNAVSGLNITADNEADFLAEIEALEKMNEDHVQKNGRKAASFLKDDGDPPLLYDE
Sequence of Serine/threonine-protein kinase 35 (Homo sapiens) (Q8TDR2 whole entry, canonical isoform): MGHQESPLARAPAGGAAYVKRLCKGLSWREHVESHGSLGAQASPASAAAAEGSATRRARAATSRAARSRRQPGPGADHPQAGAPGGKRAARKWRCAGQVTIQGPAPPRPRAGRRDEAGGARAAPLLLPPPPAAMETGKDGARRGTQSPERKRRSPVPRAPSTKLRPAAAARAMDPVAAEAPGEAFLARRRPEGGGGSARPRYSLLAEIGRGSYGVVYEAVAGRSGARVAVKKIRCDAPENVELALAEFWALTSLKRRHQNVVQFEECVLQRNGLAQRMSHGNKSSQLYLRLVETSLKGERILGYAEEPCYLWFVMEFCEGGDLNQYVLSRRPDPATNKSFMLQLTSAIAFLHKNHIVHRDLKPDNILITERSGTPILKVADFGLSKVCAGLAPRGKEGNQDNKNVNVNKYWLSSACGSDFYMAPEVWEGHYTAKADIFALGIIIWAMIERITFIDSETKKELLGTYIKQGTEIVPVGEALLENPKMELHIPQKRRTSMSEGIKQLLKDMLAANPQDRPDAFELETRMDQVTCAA
Sequence of Tyrosine-protein kinase ZAP-70 (Homo sapiens) (P43403 whole entry): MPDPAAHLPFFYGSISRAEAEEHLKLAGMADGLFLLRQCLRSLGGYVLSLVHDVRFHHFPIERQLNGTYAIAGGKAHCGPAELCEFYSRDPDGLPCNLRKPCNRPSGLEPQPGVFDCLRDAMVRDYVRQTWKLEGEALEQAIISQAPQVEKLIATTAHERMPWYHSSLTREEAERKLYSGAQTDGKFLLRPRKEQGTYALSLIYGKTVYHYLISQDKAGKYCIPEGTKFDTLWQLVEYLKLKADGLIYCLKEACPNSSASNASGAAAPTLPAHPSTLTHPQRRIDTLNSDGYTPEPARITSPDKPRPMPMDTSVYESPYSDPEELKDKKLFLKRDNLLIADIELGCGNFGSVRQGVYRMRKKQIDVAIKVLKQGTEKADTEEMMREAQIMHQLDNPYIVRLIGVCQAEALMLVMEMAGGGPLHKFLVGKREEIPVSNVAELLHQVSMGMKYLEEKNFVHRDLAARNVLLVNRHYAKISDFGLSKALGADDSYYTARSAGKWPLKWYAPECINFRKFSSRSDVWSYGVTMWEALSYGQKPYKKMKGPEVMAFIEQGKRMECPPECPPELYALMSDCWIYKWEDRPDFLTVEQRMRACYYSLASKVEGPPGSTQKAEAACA
Sequence of Serine/threonine-protein kinase TNNI3K (Homo sapiens) (Q59H18 whole entry): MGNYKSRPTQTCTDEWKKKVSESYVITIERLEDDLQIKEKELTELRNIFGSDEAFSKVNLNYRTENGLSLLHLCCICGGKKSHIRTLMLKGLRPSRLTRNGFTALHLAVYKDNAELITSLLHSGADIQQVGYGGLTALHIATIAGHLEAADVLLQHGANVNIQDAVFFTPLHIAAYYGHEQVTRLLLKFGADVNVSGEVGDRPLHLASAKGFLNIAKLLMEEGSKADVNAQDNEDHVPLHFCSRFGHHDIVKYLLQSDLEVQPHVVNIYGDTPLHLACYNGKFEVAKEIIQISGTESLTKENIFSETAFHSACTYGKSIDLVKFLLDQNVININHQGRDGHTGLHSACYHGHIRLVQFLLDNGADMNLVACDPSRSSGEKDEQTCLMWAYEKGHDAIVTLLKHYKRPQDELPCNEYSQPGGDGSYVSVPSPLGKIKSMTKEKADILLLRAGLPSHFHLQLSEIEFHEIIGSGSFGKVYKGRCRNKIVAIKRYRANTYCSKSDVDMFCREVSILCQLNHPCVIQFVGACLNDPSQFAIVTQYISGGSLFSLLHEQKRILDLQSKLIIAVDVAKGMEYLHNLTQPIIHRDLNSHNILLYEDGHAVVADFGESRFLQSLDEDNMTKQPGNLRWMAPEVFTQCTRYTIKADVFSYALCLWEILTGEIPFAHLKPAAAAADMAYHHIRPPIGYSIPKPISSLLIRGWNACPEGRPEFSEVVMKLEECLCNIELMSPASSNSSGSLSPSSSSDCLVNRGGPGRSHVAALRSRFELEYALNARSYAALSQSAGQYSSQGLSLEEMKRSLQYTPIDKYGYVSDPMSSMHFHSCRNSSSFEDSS
Sequence of Serine/threonine-protein kinase PAK 4 (Homo sapiens) (O96013 whole entry, looked up, canonical isoform): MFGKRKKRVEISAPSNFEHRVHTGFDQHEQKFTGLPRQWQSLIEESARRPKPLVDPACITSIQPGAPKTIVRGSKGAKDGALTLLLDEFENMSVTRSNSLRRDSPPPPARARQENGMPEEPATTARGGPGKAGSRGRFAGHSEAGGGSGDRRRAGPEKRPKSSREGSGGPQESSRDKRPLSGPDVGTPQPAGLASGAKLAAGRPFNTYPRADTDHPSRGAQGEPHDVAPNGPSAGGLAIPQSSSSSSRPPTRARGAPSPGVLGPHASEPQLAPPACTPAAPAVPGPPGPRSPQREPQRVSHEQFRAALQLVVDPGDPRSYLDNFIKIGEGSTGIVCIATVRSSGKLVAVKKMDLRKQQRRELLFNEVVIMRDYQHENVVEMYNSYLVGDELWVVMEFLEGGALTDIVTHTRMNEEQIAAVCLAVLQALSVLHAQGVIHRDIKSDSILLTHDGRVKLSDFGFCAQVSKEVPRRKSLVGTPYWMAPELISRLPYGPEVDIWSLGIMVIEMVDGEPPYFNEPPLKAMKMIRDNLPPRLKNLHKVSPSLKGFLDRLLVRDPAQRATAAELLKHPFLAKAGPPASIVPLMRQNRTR
Sequence of Cyclin-dependent kinase 7 (Homo sapiens) (P50613 whole entry): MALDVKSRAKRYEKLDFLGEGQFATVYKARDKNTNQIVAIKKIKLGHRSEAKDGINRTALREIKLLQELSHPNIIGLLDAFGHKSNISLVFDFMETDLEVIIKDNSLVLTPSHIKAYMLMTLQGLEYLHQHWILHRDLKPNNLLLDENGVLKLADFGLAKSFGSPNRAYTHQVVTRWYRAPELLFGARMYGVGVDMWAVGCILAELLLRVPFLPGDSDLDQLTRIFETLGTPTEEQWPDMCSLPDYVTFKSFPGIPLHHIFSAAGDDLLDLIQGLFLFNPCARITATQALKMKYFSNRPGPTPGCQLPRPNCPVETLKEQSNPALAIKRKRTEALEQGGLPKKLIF

N#Cc1ccc(Nc2ccc3[nH]c(=O)[nH]c3c2)c(Cl)c1
inactive: inhibition [1] 11.6% | residual activity [2] 95% | residual activity [3] 67% | residual activity [4] 82% | residual activity [5] 100% | residual activity [6] 90% | inhibition [7] -5.71% | inhibition [8] -9.92% | residual activity [9] 100% | residual activity [10] 100% | residual activity [11] 100% | inhibition [12] 13.1% | residual activity [13] 65% | residual activity [14] 93% | residual activity [15] 100% | residual activity [16] 100% | residual activity [17] 96% | residual activity [18] 100% | residual activity [19] 87% | residual activity [20] 100% | residual activity [21] 100% | residual activity [22] 100% | residual activity [23] 100% | residual activity [24] 100% | residual activity [25] 86% | residual activity [26] 100% | residual activity [27] 100% | residual activity [28] 91% | residual activity [29] 100% | residual activity [30] 83% | residual activity [31] 77% | residual activity [32] 91% | residual activity [33] 99% | residual activity [34] 85% | residual activity [35] 100% | inhibition [36] 8.47% | residual activity [37] 100% | residual activity [38] 100% | residual activity [39] 92% | residual activity [40] 99% | residual activity [41] 100% | residual activity [42] 62% | residual activity [43] 100% | residual activity [44] 100% | residual activity [45] 100% | residual activity [46] 96%

O=C1CCc2cc(Nc3cc(OC4CCOCC4)c([N+](=O)[O-])cc3Cl)ccc2N1
inactive: inhibition [1] 48.7% | residual activity [2] 93% | residual activity [3] 98% | residual activity [4] 83% | residual activity [5] 100% | residual activity [6] 91% | inhibition [7] 3.49% | inhibition [8] -4.43% | residual activity [9] 100% | residual activity [10] 97% | residual activity [11] 100% | inhibition [12] -0.04% | residual activity [13] 60% | residual activity [14] 88% | residual activity [15] 100% | residual activity [16] 100% | residual activity [17] 82% | residual activity [18] 96% | residual activity [19] 100% | residual activity [20] 94% | residual activity [21] 90% | residual activity [22] 79% | residual activity [23] 100% | residual activity [24] 100% | residual activity [25] 83% | residual activity [26] 99% | residual activity [27] 100% | residual activity [28] 100% | residual activity [29] 100% | residual activity [30] 74% | residual activity [31] 100% | residual activity [32] 83% | residual activity [33] 86% | residual activity [34] 76% | residual activity [35] 86% | inhibition [36] 15.1% | residual activity [37] 100% | residual activity [38] 100% | residual activity [39] 100% | residual activity [40] 67% | residual activity [41] 100% | residual activity [42] 100% | residual activity [43] 93% | residual activity [44] 95% | residual activity [45] 100% | residual activity [46] 81%
